Source: patent publication US20240157020A1, “SUTURES” (The Queen's University of Belfast, priority 2021, published 2024)
In brackets after ≈: the same amount, converted by molar mass. Read-outs that look alike come from different tables or passages of the source.

Columns and labels:
Type in all cases: cell-based
P. aeruginosa NCTC 10783 = test: MIC and MBC determination; conditions: Pseudomonas aeruginosa, NCTC10783
Experimental: (§1) The antimicrobial activity of the THEDES was also assessed by determining the minimum inhibitory concentration (MIC) and the minimum bactericidal concentration (MBC) of MET, MA and the equimolar THEDES, respectively. Concentrations of 6 mg/mL MET, MA and MET-MA 1:1 were used to determine the MIC and MBC values against gram-positive bacteria E. faecalis, S. epidermidis and S. aureus, and gram-negative bacteria P. aeruginosa, E. coli and K. pneumoniae; results are shown in Table 4.

S. aureus NCTC 10788 = test: MIC and MBC determination
Experimental: as §1

[1] = test system: S. epidermidis ATCC 35984; test: MIC and MBC determination; conditions: Staphylococcus epidermidis, ATCC35984
Experimental: as §1

[2] = test system: K. pneumoniae ATCC 700603; test: MIC and MBC determination; conditions: Klebsiella pneumoniae, ATCC700603
Experimental: as §1

E. faecalis ATCC 29212 = test: MIC and MBC determination; conditions: Enterococcus faecalis, ATCC29212
Experimental: as §1

P. aeruginosa ATCC 27853 = test: MIC and MBC determination; conditions: Pseudomonas aeruginosa, ATCC27853
Experimental: as §1

S. aureus ATCC 29213 = test: MIC and MBC determination
Experimental: as §1

[3] = test system: S. aureus NCTC 12493 (MRSA); test: MIC and MBC determination
Experimental: as §1

E. coli NCTC 8196 = test: MIC and MBC determination; conditions: Escherichia coli, NCTC8196
Experimental: as §1

[4] = test system: Klebsiella pneumoniae ATCC 700603; test: Disc diffusion inhibition zone assay; conditions: gentamicin sulphate 10 mg/mL, THEDES neat, average n = 9 ± S.D.
Experimental: (§2) The disc diffusion assays were carried out against Staphylococcus aureus (FIG. 7, Gram-positive, frequently found in the upper respiratory tract and on the skin) and Klebsiella pneumoniae (FIG. 8, Gram-negative, facultative anaerobic, typically residing in human intestines and faeces). In general, the calculated inhibition zones of gentamicin sulphate (10 mg/mL) and the neat THEDES were very similar, confirming the antimicrobial activity of the THEDES against both gram-positive and gram-negative bacteria (Table 3).

[5] = test system: Staphylococcus aureus NCTC 10788; test: Disc diffusion inhibition zone assay; conditions: gentamicin sulphate 10 mg/mL, THEDES neat, average n = 9 ± S.D.
Experimental: as §2

Pseudomonas aeruginosa = test: Disc diffusion inhibition zone assay; conditions: gentamicin sulphate 10 mg/mL, THEDES neat, average n = 9 ± S.D.
[6] = Staphylococcus aureus, NCTC10788, S. aureus NCTC 10788
[7] = Staphylococcus aureus, ATCC29213, S. aureus ATCC 29213
[8] = Staphylococcus aureus, S. aureus NCTC 12493 (MRSA)

Compound	MBC (P. aeruginosa NCTC 10783) [µg/mL]	MIC (P. aeruginosa NCTC 10783) [µg/mL]	MBC (S. aureus NCTC 10788; [6]) [µg/mL]	MBC [1] [µg/mL]	MIC [1] [µg/mL]	MBC [2] [µg/mL]	MIC [2] [µg/mL]	MBC (E. faecalis ATCC 29212) [µg/mL]	MIC (E. faecalis ATCC 29212) [µg/mL]	MBC (P. aeruginosa ATCC 27853) [µg/mL]	MIC (P. aeruginosa ATCC 27853) [µg/mL]	MBC (S. aureus ATCC 29213; [7]) [µg/mL]	MBC [3, 8] [µg/mL]	MBC (E. coli NCTC 8196) [µg/mL]	MIC (E. coli NCTC 8196) [µg/mL]	other results
O=C(O)/C=C\C(=O)O [MA, maleic acid]	> 6000	6000 (≈ 51.7 mM)	> 6000	> 6000	6000 (≈ 51.7 mM)	> 6000	> 6000	> 6000	6000 (≈ 51.7 mM)	> 6000	6000 (≈ 51.7 mM)	> 6000	> 6000	> 6000	6000 (≈ 51.7 mM)	MIC (S. aureus NCTC 10788; Staphylococcus aureus, NCTC10788, S. aureus NCTC 10788, read-out: MIC): 6000 µg/mL (≈ 51.7 mM); MIC (S. aureus ATCC 29213; Staphylococcus aureus, ATCC29213, S. aureus ATCC 29213, read-out: MIC): 6000 µg/mL (≈ 51.7 mM); MIC ([3]; Staphylococcus aureus, S. aureus NCTC 12493 (MRSA), read-out: MIC): 6000 µg/mL (≈ 51.7 mM)
Cc1ncc([N+](=O)[O-])n1CCO [MET, metronidazole]	> 6000	> 6000	> 6000	3000 (≈ 17.5 mM)	3000 (≈ 17.5 mM)	6000 (≈ 35.1 mM)	6000 (≈ 35.1 mM)	> 6000	> 6000	> 6000	> 6000	> 6000	> 6000	> 6000	> 6000	MIC (S. aureus NCTC 10788; S. aureus NCTC 10788): 6000 µg/mL (≈ 35.1 mM); MIC (S. aureus NCTC 10788; Staphylococcus aureus, NCTC10788, non-methicillin-resistant S. aureus strain, read-out: MIC): 6000 µg/mL (≈ 35.1 mM); MIC (S. aureus ATCC 29213; S. aureus ATCC 29213): 6000 µg/mL (≈ 35.1 mM); MIC (S. aureus ATCC 29213; Staphylococcus aureus, ATCC29213, non-methicillin-resistant S. aureus strain, read-out: MIC): 6000 µg/mL (≈ 35.1 mM); MIC ([3]; S. aureus NCTC 12493 (MRSA)): >6000 µg/mL; MIC ([3]; Staphylococcus aureus, methicillin-resistant strain of S. aureus (MRSA), read-out: MIC): > 6000 µg/mL
gentamicin sulphate																ZOI Diameter [4]: 24.13 ± 1.09 mm; ZOI Diameter [5]: 46.09 ± 1.69 mm; ZOI Diameter (Pseudomonas aeruginosa): 26.04 ± 1.75 mm
